According to publication PMC2063346, “Cyclosporin A as a multidrug-resistant modulator in patients with renal cell carcinoma treated with teniposide” (British Journal of Cancer, 1997):

Experiments:
[1] = in vivo
Protocol: (§1) British Joumal of Cancer (1997) 75(5), 715-721 ? […] Sixteen patients initially received VM26 alone (200 mg m-2 day-' i.v.). […] For this reason, new approaches are highly recommended after a first-line treatment, usually interleukin 2 based (Yagoda et al, 1995). […] P-gp deter- mines reduced intracellular drug accumulation and/or altered intracellular drug compartmentation, preventing drugs from reaching the intracellular target site (Skovsgaard, 1978, Schuurhuis et al, 1989). […] Received 2 June 1996 Revised 2 October 1996 Accepted 17 October 1996 Correspondence to: M Boiocchi, Division of Experimental Oncology 1, Centro di Riferimento Oncologico, via Pedemontana Occidentale 12, 33081 Aviano (PN), Italy Although many chemosensitizers have been used successfully in vitro in MDR cell lines, their potential therapeutic role in the clinical setting remains an intriguing issue. […] This could determine alteration in the pharmacokinetics and pharmacodynamics of the cytotoxic agents (Lum et al, 1992; Wilson et al, 1995). […] The study was approved by the local ethics committee and informed consent was obtained from all patients. Treatment protocol The patients received the first course of VM26 (Vumon; Bristol Myers, Rome, Italy) at the dosage of 200 mg m-2 day-' i.v. every 3 weeks. The second cycle (same dosage) was administered in the event of response or stable disease, if no toxicity was documented. In the event of grade 4 toxicity the dose was reduced by 25%. […] The patients were clinically evaluated according to the usual phase II trials criteria (WHO), and blood tests were performed weekly. […] To determine the VM26 level, 5-ml blood samples were drawn from peripheral vein and collected in heparinized glass tubes before treatment at 0 h (i.e. immediately before the begin- ning of i.v. infusion of VM26) and at 1,6, 12, 18, 24,24.5,25,26, 28, 32, 36, 48 and 60h. Plasma samples, which were separated after centrifugation at 1000 g for 10 min, were kept frozen at - 20'C until analysis. Urine samples were collected before, during and after VM26 treatment. Each 12-h sample from well-stirred urine was stored and kept frozen at -20?C until analysis. […] These samples were frozen at -70?C until analysis. Drug assays The method used to determine VM26 in plasma samples was that described by Evans et al (1982). Briefly, 1 ml of plasma or urine was extracted with 8 ml of chloroform containing VP16 (100 gl of a 200-,ug ml solution) as internal standard. After 20-min shaking at +4?C, samples were centrifuged at 1500 g for 20 min at +4?C. The organic phase was dried under vacuum and then redissolved with 200 gl of methanol; 50 µl of this solution as injected into an LKB-Pharmacia (Cambridge, UK) high-performance liquid chro- matography (HPLC) system equipped with an absorbance detector set at 254 nm. Separation was achieved using an isocratic solvent system of water-acetonitrile-acetic acid (64:35:1) at a flow of 1 ml min-, using a 300 x 3.9-mm long ,uBondapak phenyl column (Waters, New York, NY, USA). Peak areas were quantitated with an LKB integrator. […] To calculate the concentrations of VM26, the internal standard method was adopted. […] Pharmacokinetic analyses To define the plasma concentration-time function and to estimate pharmacokinetic parameters of VM26 for each patient, a compart- mental model was adopted. Drug infusion and non-saturable elim- ination processes were considered zero-order and first-order processes respectively. Estimates of pharmacokinetic parameters [apparent volume of distribution (V); elimination half-life (t1,2p); systemic clearance (CI); maximum drug concentration (Cmax); and area under curve (AUC)] of VM26 and the numerical validation of the model were obtained by PCNONLIN 4.0, a non-linear regression program.

[2] = Total and renal clearance of VM26 (urine collection, seven patients); format: in vivo
Protocol: British Joumal of Cancer (1997) 75(5), 715-721 ? […] Sixteen patients initially received VM26 alone (200 mg m-2 day-' i.v.). […] For this reason, new approaches are highly recommended after a first-line treatment, usually interleukin 2 based (Yagoda et al, 1995). […] P-gp deter- mines reduced intracellular drug accumulation and/or altered intracellular drug compartmentation, preventing drugs from reaching the intracellular target site (Skovsgaard, 1978, Schuurhuis et al, 1989). […] Received 2 June 1996 Revised 2 October 1996 Accepted 17 October 1996 Correspondence to: M Boiocchi, Division of Experimental Oncology 1, Centro di Riferimento Oncologico, via Pedemontana Occidentale 12, 33081 Aviano (PN), Italy Although many chemosensitizers have been used successfully in vitro in MDR cell lines, their potential therapeutic role in the clinical setting remains an intriguing issue. […] The patients were clinically evaluated according to the usual phase II trials criteria (WHO), and blood tests were performed weekly. […] The organic phase was dried under vacuum and then redissolved with 200 gl of methanol; 50 µl of this solution as injected into an LKB-Pharmacia (Cambridge, UK) high-performance liquid chro- matography (HPLC) system equipped with an absorbance detector set at 254 nm. […] Peak areas were quantitated with an LKB integrator. […]

[3] = VM26 plasma pharmacokinetics alone and with CSA (HPLC, compartmental model); format: in vivo, patients
Protocol: as §1

[4] = system: metastatic renal cell carcinoma; test: Treatment response, phase II (WHO criteria); format: in vivo, patients
Protocol: as §1

[5] = VM26 alone, first cycle, 16 patients
[6] = nine patients after two courses of VM26 alone

## COc1cc([C@@H]2c3cc4c(cc3[C@@H](O[C@@H]3O[C@@H]5CO[C@@H](c6cccs6)O[C@H]5[C@H](O)[C@H]3O)[C@H]3COC(=O)[C@H]23)OCO4)cc(OC)c1O [VM26, teniposide]
[1]
  ANC/AUC ratio (nadir ANC standardized for AUC of VM26): 7.38 ± 5.51
  bilirubin (in the normal range): < 1.5 mg 100 ml-1
  cutaneous eruption, patients: one patient
  cycles with significant vomiting, mucositis or constipation: < 15 % of cycles
  grade 3 neutropenia, patients: three
  hair loss, patients: all patients
  nadir neutrophil count (ANC), median: 1900 µL⁻¹
  nadir neutrophil count (ANC), range: 200 to 6000 µL⁻¹
[2]; VM26 alone
  fraction of total clearance resulting from renal clearance: < 6%
[2]; VM26 plus CSA versus VM26 alone, seven patients, P<0.05
  Decrease of total Cl of VM26: 21%
[3]; [5]
  AUC of VM26, median (range): 290.3 (168.4-791.0) mg l-1 h
  Cl of VM26, median (range): 0.62 (0.25-1.2) l h-1 m-2
  Cmax of VM26, median (range): 10.9 (7.0-22.3) mg l-1
  V of VM26, median (range): 5.5 (4.4-9.0) l m-2
  t1/2 of VM26, median (range): 6.8(2.8-14.8) h
[3]; after CSA versus VM26 alone
  variation in the paired AUC of VM26: 50%
[3]; when CSA was added, P<0.01
  decrease of systemic clearance of VM26: 1.4 fold
[4]; VM26 alone 200 mg m-2 day-1 i.v., sixteen patients
  objective responses: No objective responses
[4]; [6]
  progressive disease, patients: six
  stable disease, patients: three
[4]; patient 1, 2 cycles
  Response (VM26): SD (stable disease)
[4]; patient 2, 2 cycles
  Response (VM26): PD (progressive disease)
[4]; patient 3, 2 cycles
  Response (VM26): PD (progressive disease)
[4]; patient 4, 2 cycles
  Response (VM26): PD (progressive disease)
[4]; patient 5, 2 cycles
  Response (VM26): SD (stable disease)
[4]; patient 6, 2 cycles
  Response (VM26): SD (stable disease)
[4]; patient 7, 2 cycles
  Response (VM26): PD (progressive disease)
[4]; patient 8, 2 cycles
  Response (VM26): PD (progressive disease)
[4]; patient 9, 2 cycles
  Response (VM26): PD (progressive disease)
